Experimental data taken from PubChem BioAssay (NCI).
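Results reflect a 48-hour exposure of cells in 96-well plates to compound at five concentrations. Here, GI50 denotes the concentration required for 50% inhibition of growth. TGI is the concentration that stops growth completely.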

Assays:
Test in all cases: NCI anticancer screen, dose series, 48 h
RXF 393 renal = tested on: RXF 393 renal
NCI-H460 lung = tested on: NCI-H460 lung
A498 renal = tested on: A498 renal
HOP-92 NSCLC = tested on: HOP-92 NSCLC
UACC-62 melanoma = tested on: UACC-62 melanoma
IGROV1 ovarian = tested on: IGROV1 ovarian
SNB-75 CNS = tested on: SNB-75 CNS
TK-10 renal = tested on: TK-10 renal
RPMI-8226 leukemia = tested on: RPMI-8226 leukemia
MDA-MB-231 breast = tested on: MDA-MB-231 breast

| SMILES | TGI (RXF 393 renal) | TGI (NCI-H460 lung) [µM] | TGI (A498 renal) | TGI (HOP-92 NSCLC) | TGI (UACC-62 melanoma) | TGI (IGROV1 ovarian) | TGI (SNB-75 CNS) | TGI (TK-10 renal) | TGI (RPMI-8226 leukemia) | TGI (MDA-MB-231 breast) | GI50 (RXF 393 renal) | GI50 (NCI-H460 lung) [µM] | GI50 (A498 renal) | GI50 (HOP-92 NSCLC) | GI50 (UACC-62 melanoma) | GI50 (IGROV1 ovarian) | GI50 (SNB-75 CNS) | GI50 (TK-10 renal) | GI50 (RPMI-8226 leukemia) | GI50 (MDA-MB-231 breast) |
| --- | --- | --- | --- | --- | --- | --- | --- | --- | --- | --- | --- | --- | --- | --- | --- | --- | --- | --- | --- | --- |
| Cc1ccc2nc(NC(=O)C(=O)C(C#N)c3nc4ccccc4s3)sc2c1 (stereo not given) | 90.9 µM | > 100 | 37.8 µM | 75.3 µM | > 100 µM | 51.8 µM | > 100 µM | 85.3 µM | 64.8 µM |  |  |  |  |  |  |  |  |  |  |  |
| COc1ccc(Br)c(N/N=C2\CCCNC2=O)c1 |  | > 100 |  | > 100 µM | > 100 µM | > 100 µM | > 100 µM | > 100 µM | > 100 µM |  |  |  |  |  |  |  |  |  |  |  |
| N#CC(NC12CC3CC(CC(C3)C1)C2)c1ccc2c(c1)OCO2 (stereo not given) | > 100 µM | > 100 |  | > 100 µM | > 100 µM | > 100 µM | > 100 µM | > 100 µM | > 100 µM | > 100 µM |  |  |  |  |  |  |  |  |  |  |
| CCS(CC)(CC)CC1CCCC2=CCC(P(=O)(c3ccccc3)c3ccccc3)CC21 (stereo not given) | 23.2 µM | 24.8 | 28 µM | 16.4 µM | 13.5 µM | 28.1 µM | 25.4 µM | 27 µM |  |  |  |  |  |  |  |  |  |  |  |  |
| CCC[CH2][Sn]1([CH2]CCC)[O]C(=O)c2cccnc2[O]1 | 3.82 µM | 26 | 7.27 µM | 4.63 µM | 3.94 µM | 18.4 µM | 6.78 µM | 8.23 µM | 6.34 µM |  | 2.02 µM | 13.3 | 2.72 µM | 1.01 µM | 1.8 µM | 4.57 µM | 2.09 µM | 2.73 µM | 1.74 µM |  |
| CN1C(=Nc2ccccc2)SC1=Nc1ccccc1 |  | > 100 | > 100 µM | 58.5 µM | > 100 µM | > 100 µM | 40.3 µM | > 100 µM | > 100 µM |  |  |  |  |  |  |  |  |  |  |  |
| COc1ccc2nc3cccc([N+](=O)[O-])c3c(NCCCCCC(=O)O)c2c1 |  | 0.806 | 4.28 µM | 0.456 µM | 0.465 µM | 1.16 µM | 1.57 µM | 17.6 µM | 0.052 µM | 74 µM |  | 0.0442 | 1.87 µM | 0.0878 µM | 0.183 µM | 0.231 µM | 0.282 µM | 1.72 µM | 0.0131 µM | 0.838 µM |
| CN(C)CC/C(=N\Nc1ccc([N+](=O)[O-])cc1)c1ccccc1 | 17.1 µM | 21.3 | 27.2 µM |  | 25.9 µM | 24.9 µM | 17.6 µM | 15.3 µM | 30.6 µM |  |  |  |  |  |  |  |  |  |  |  |
| O=[N+]([O-])c1cc(C(F)(F)F)cc([N+](=O)[O-])c1CCl | 5.09 µM | 21.4 | 38 µM | 19.1 µM | 1.21 µM | 6.09 µM | 8.77 µM | 19.5 µM | 3.49 µM |  |  |  |  |  |  |  |  |  |  |  |
| Cc1cc(=O)n(-c2ccccc2C)c(C)n1 | > 100 µM | > 100 | > 100 µM | > 100 µM | > 100 µM | > 100 µM | > 100 µM | > 100 µM |  |  |  |  |  |  |  |  |  |  |  |  |
| CCC(C)(CC(C)(C)C(=O)NCC(=O)NC(Cc1ccccc1)C(=O)NC(Cc1ccccc1)C(=O)NCC(=O)NC1CC(OC2CC(O)(C(=O)CO)Cc3c(O)c4c(c(O)c32)C(=O)c2c(OC)cccc2C4=O)OC(C)C1O)C(=O)NCC(C)O (stereo not given) | > 150 µg/mL |  | > 150 µg/mL | > 150 µg/mL | > 150 µg/mL | > 150 µg/mL | > 150 µg/mL | > 150 µg/mL | > 150 µg/mL | > 150 µg/mL | > 150 µg/mL |  | > 150 µg/mL | > 150 µg/mL | 75 µg/mL | 41.7 µg/mL | 16.1 µg/mL | > 150 µg/mL | 36 µg/mL | 119 µg/mL |
| CC/C=C1/C(=O)C=C[C@@H]1C/C=C\CCCC(=O)OC | 3.9 µM |  |  | 25.1 µM | 4.6 µM | 15.8 µM | 33.2 µM | 14.5 µM | 5.54 µM | 15.4 µM | 2.03 µM |  |  | 12.1 µM | 1.97 µM | 3.76 µM | 12.9 µM | 4.07 µM | 0.699 µM | 4.43 µM |
| COc1ccc(/C(COc2ccc3c(=O)cc(-c4ccccc4)oc3c2)=N\O)cc1 | > 50 µM | > 50 |  | > 50 µM | 31.4 µM | > 47.6 µM | > 45.9 µM | 28.1 µM | > 50 µM | 22.5 µM | 15.8 µM | 13.3 |  | > 27.7 µM | 10.9 µM | 16.6 µM | > 31.8 µM | 10.7 µM | 22.3 µM | 5.82 µM |
| COc1cc2c(c(OC)c1OC)-c1ccc(SC)c(=O)cc1C(CO)C2 (stereo not given) |  |  |  | > 100 µM | 15.7 µM | > 100 µM |  | > 100 µM | > 100 µM |  | < 0.01 µM | < 0.01 | < 0.01 µM | < 0.01 µM | < 0.01 µM | < 0.01 µM | < 0.01 µM | > 100 µM |  |  |
| OC(c1ccccc1)(c1ccccc1)c1ccncc1 | > 100 µM | > 100 |  | > 100 µM | > 100 µM | > 100 µM | > 100 µM | > 100 µM | > 100 µM |  |  |  |  |  |  |  |  |  |  |  |
| CN(CCCn1c2c(c3ccccc3c1=O)C(=O)c1ccccc1-2)CCCn1c2c(c3ccccc3c1=O)C(=O)c1ccccc1-2 |  | > 100 | 74.3 µM | 1.9 µM | 45.3 µM |  | 5.21 µM |  |  |  |  | 0.242 | 11.4 µM | 0.0671 µM | 3.08 µM |  | 1.74 µM |  |  |  |
| COc1ccc2cc(C(=O)/C=C/c3ccc(Cl)cc3Cl)ccc2c1 | 14.5 µM | > 100 | 36 µM | > 100 µM | 86.5 µM |  |  | > 100 µM | > 100 µM | > 100 µM | 4.52 µM | 70.7 | 19.8 µM | > 100 µM | 12 µM |  |  | 27.7 µM | 6.81 µM | 44.6 µM |
| c1ccc2c(c1)cc(C1NCCc3[nH]cnc31)c1ccccc12 (stereo not given) | 85.6 µM | > 53.6 | 50 µM | > 95.6 µM | > 51.1 µM | > 100 µM | > 100 µM | > 100 µM | > 78.4 µM |  |  |  |  |  |  |  |  |  |  |  |
